# “And” between values parts separate entries of the source, which are not always exact repeats. Identical values can stand only once.
# Tests used:
# [1] = type: in vivo; details: CB57/BL6 mice; twice weekly, total of 4 dose fractions
# Procedure: Toxicity studies were done in nontumor bearing CB-17 SCID mice (Taconic Biosciences). […] Each arm had n = 10 mice (5 male, 5 female mice). […] The vehicle group received an equal volume of saline (placebo). Weights were obtained twice weekly and mice were monitored daily for signs of toxicity. […] On target hematological and marrow toxicity which was evaluated by complete blood counts and marrow colony formation assay. An additional study was performed under identical conditions to evaluate additive dose effects. […] Each treatment group was composed of equal numbers of male and female mice to rule out gender-specific effects (n = 4 per treatment group per time point). Mice were followed for signs of acute toxicity for 2 weeks and 4 weeks before euthanasia. An additional group (n = 4) treated at 36 MBq/kg was euthanized after 72 h to assess early signs of toxicity by colony formation assays. This time course was chosen to best capture the nadir of bone marrow suppression. After euthanasia, blood was collected and femurs were dissected and processed for histopathology and bone marrow evaluation.
# Supplementary Fi g u re 4: To le r a b ilit y studies to determine hematological and marrow toxicity of
# [211At]PTT in CB57BL6 mice. a) Maximum tolerated dose finding studies fo r [211At]PTT administered
# as 4 dose fractions given twice weekly in CB57BL6 mice. b) Complete blood counts assessed at 72 […]
# COG-N-421x = test: Pre-clinical efficacy study, COG-N-421x PDX; type: in vivo; details: 36 MBq/kg/fraction x 4 fractions, single mouse
# Procedure: Patient demographics and genetic characteristics are listed in (Supplementary Tables 1, 2)[17]. The maximum tolerated dose (MTD) was determined to be 36 MBq/kg administered by intra-peritoneal injection twice weekly for a total of 4 dose fractions and this fractionated regimen was used in all studies (Supplementary Fig. 1)[18],[19]. […] Nine of 11 PDX models were MYCN amplified (Fig. 1b), which is a hallmark of high-risk neuroblastoma. Tumor response was measured as the maximum percent decrease in tumor volume after treatment and event-free survival (EFS) was measured by the area over the curve method with tumor events pre-defined by tumor growth exceeding 2 cm[3],[18].
# The use of 2 mice per arm was based on the previously reported statistical analysis. […] Two additional dose levels of 12, and 24 MBq/kg/fraction were assessed in a subset of models and were administered as stated above. […] Tumors were measured using a digital caliper at the initiation of the study and two times per week during the treatment period. Tumor volumes were calculated as volume = ((diameter^1/2 + diameter^2/2)^3∗0.5236)/1000. Weights were obtained twice weekly and mice were monitored daily for signs of toxicity. […] Tumor response was assessed by best response defined as greatest reduction in tumor volume following the last dose and is presented as percent change in tumor volume. […]
# [2] = Mouse weight over time / tolerability in PDX efficacy study (Fig. 1f); type: in vivo
# Procedure: The use of 2 mice per arm was based on the previously reported statistical analysis. PDX tumors were implanted into the right flank of 5 to 6-weeks old female mice weighing about 20–25 grams. […] Two additional dose levels of 12, and 24 MBq/kg/fraction were assessed in a subset of models and were administered as stated above. In two models treated at the 24 MBq/kg/fraction dose level we re-challenged tumor response at the time of tumor progression with an additional 4 dose fractions at 24 MBq/kg/fraction given twice weekly. Doses were prepared in 500 µL total volume. An equal volume of saline was used for the vehicle group. Tumors were measured using a digital caliper at the initiation of the study and two times per week during the treatment period. Tumor volumes were calculated as volume = ([…]∗0.5236)/1000. Weights were obtained twice weekly and mice were monitored daily for signs of toxicity. […] Tumor response was assessed by best response defined as greatest reduction in tumor volume following the last dose and is presented as percent change in tumor volume. Event-free survival was determined by area over the curve method that calculates the time to tumor event, which was defined as tumors reaching or exceeding a size ≥ 2 cm^3.
compound,measurement,setting,value
"O=C1NCCn2c(-c3ccc([211At])cc3)nc3cccc1c32 [[^211At]PTT, Astatine-211-parthanatine]",MTD,[1],48 MBq/kg/fraction
same,EFS by AOC method,COG-N-421x,61.4391 days and 76.0056 days
same,Tumor response (% growth from study initiation at ~ 200 mm3),COG-N-421x,-100%
same,Percent Body Weight from study initiation,"[2]; COG415-325, 12 MBq/kg/fraction x 4, 0.4 Weeks",100.48% and 95.77%
same,Percent Body Weight from study initiation,"[2]; COG415-325, 12 MBq/kg/fraction x 4, 1 Weeks",100.97% and 94.84%
same,Percent Body Weight from study initiation,"[2]; COG415-325, 12 MBq/kg/fraction x 4, 1.4 Weeks",100% and 92.96%
same,Percent Body Weight from study initiation,"[2]; COG415-325, 12 MBq/kg/fraction x 4, 2 Weeks",97.58% and 92.96%
same,Percent Body Weight from study initiation,"[2]; COG415-325, 12 MBq/kg/fraction x 4, 2.4 Weeks",103.86% and 98.12%
same,Percent Body Weight from study initiation,"[2]; COG415-325, 12 MBq/kg/fraction x 4, 3 Weeks",102.42% and 99.53%
same,Percent Body Weight from study initiation,"[2]; COG415-325, 12 MBq/kg/fraction x 4, 3.4 Weeks",108.7% and 102.35%
same,Percent Body Weight from study initiation,"[2]; COG415-325, 12 MBq/kg/fraction x 4, 4 Weeks",111.11% and 110.33%
same,Percent Body Weight from study initiation,"[2]; COG415-650, 24 MBq/kg/fraction x 4, 0.4 Weeks",102.79% and 99.52%
same,Percent Body Weight from study initiation,"[2]; COG415-650, 24 MBq/kg/fraction x 4, 1 Weeks",96.74% and 92.82%
same,Percent Body Weight from study initiation,"[2]; COG415-650, 24 MBq/kg/fraction x 4, 1.4 Weeks",92.56% and 90.43%
same,Percent Body Weight from study initiation,"[2]; COG415-650, 24 MBq/kg/fraction x 4, 2 Weeks",90.23% and 87.56%
same,Percent Body Weight from study initiation,"[2]; COG415-650, 24 MBq/kg/fraction x 4, 2.4 Weeks",93.49% and 92.34%
same,Percent Body Weight from study initiation,"[2]; COG415-650, 24 MBq/kg/fraction x 4, 3 Weeks",100.93% and 99.04%
same,Percent Body Weight from study initiation,"[2]; COG415-650, 24 MBq/kg/fraction x 4, 3.4 Weeks",100% and 96.65%
same,Percent Body Weight from study initiation,"[2]; COG415-650, 24 MBq/kg/fraction x 4, 4 Weeks",102.33% and 99.04%
same,Percent Body Weight from study initiation,"[2]; COG415-650, 24 MBq/kg/fraction x 4, 4.4 Weeks",106.05% and 102.39%
same,Percent Body Weight from study initiation,"[2]; COG415-650, 24 MBq/kg/fraction x 4, 5 Weeks",107.44% and 96.65%
same,Percent Body Weight from study initiation,"[2]; COG415-650, 24 MBq/kg/fraction x 4, 5.4 Weeks",111.63% and 101.91%
same,Percent Body Weight from study initiation,"[2]; COG415-650, 24 MBq/kg/fraction x 4, 6 Weeks",104.31%
same,Percent Body Weight from study initiation,"[2]; COG415-975, 36 MBq/kg/fraction x 4, 0 Weeks",100%
same,Percent Body Weight from study initiation,"[2]; COG415-975, 36 MBq/kg/fraction x 4, 0.4 Weeks",94.07% and 98.23%
same,Percent Body Weight from study initiation,"[2]; COG415-975, 36 MBq/kg/fraction x 4, 1 Weeks",84.75% and 90.71%
same,Percent Body Weight from study initiation,"[2]; COG415-975, 36 MBq/kg/fraction x 4, 1.4 Weeks",80.51% and 90.27%
same,Percent Body Weight from study initiation,"[2]; COG415-975, 36 MBq/kg/fraction x 4, 2 Weeks",72.88% and 79.65%
same,Percent Body Weight from study initiation,"[2]; COG415-975, 36 MBq/kg/fraction x 4, 2.4 Weeks",77.97% and 83.63%
same,Percent Body Weight from study initiation,"[2]; COG415-975, 36 MBq/kg/fraction x 4, 3 Weeks",80.08% and 81.86%
same,Percent Body Weight from study initiation,"[2]; COG415-975, 36 MBq/kg/fraction x 4, 3.4 Weeks",75.42% and 81.42%
same,Percent Body Weight from study initiation,"[2]; COG415-975, 36 MBq/kg/fraction x 4, 4 Weeks",80.93% and 80.09%
same,Percent Body Weight from study initiation,"[2]; COG415-975, 36 MBq/kg/fraction x 4, 4.4 Weeks",82.2% and 82.3%
same,Percent Body Weight from study initiation,"[2]; COG415-975, 36 MBq/kg/fraction x 4, 5 Weeks",88.56% and 88.05%
same,Percent Body Weight from study initiation,"[2]; COG415-975, 36 MBq/kg/fraction x 4, 5.4 Weeks",88.98% and 91.59%
same,Percent Body Weight from study initiation,"[2]; COG415-975, 36 MBq/kg/fraction x 4, 6.1 Weeks",96.19% and 92.48%
same,Percent Body Weight from study initiation,"[2]; COG415-975, 36 MBq/kg/fraction x 4, 6.4 Weeks",94.07% and 90.71%
same,Percent Body Weight from study initiation,"[2]; COG415-975, 36 MBq/kg/fraction x 4, 7 Weeks",99.58% and 93.36%
same,Percent Body Weight from study initiation,"[2]; COG415-975, 36 MBq/kg/fraction x 4, 7.4 Weeks",101.27% and 93.36%
same,Percent Body Weight from study initiation,"[2]; COG415-975, 36 MBq/kg/fraction x 4, 8 Weeks",95.48%
same,Percent Body Weight from study initiation,"[2]; COG415-975, 36 MBq/kg/fraction x 4, 8.9 Weeks",100.44%
same,Percent Body Weight from study initiation,"[2]; COG415-975, 36 MBq/kg/fraction x 4, 9.4 Weeks",100.88%
same,Percent Body Weight from study initiation,"[2]; COG415-975, 36 MBq/kg/fraction x 4, 10 Weeks",101.77%
same,Percent Body Weight from study initiation,"[2]; COG415-975, 36 MBq/kg/fraction x 4, 10.4 Weeks",103.98%
same,Percent Body Weight from study initiation,"[2]; COG415-975, 36 MBq/kg/fraction x 4, 11 Weeks",107.08%
same,Percent Body Weight from study initiation,"[2]; COG415-975, 36 MBq/kg/fraction x 4, 12 Weeks",105.31%
same,Percent Body Weight from study initiation,"[2]; COG519-325, 12 MBq/kg/fraction x 4, 0 Weeks",100%
same,Percent Body Weight from study initiation,"[2]; COG519-325, 12 MBq/kg/fraction x 4, 0.4 Weeks",100% and 97.98%
same,Percent Body Weight from study initiation,"[2]; COG519-325, 12 MBq/kg/fraction x 4, 1 Weeks",93.83% and 96.97%
same,Percent Body Weight from study initiation,"[2]; COG519-650, 24 MBq/kg/fraction x 4, 0 Weeks",100%
same,Percent Body Weight from study initiation,"[2]; COG519-650, 24 MBq/kg/fraction x 4, 0.4 Weeks",97.69% and 96.86%
same,Percent Body Weight from study initiation,"[2]; COG519-650, 24 MBq/kg/fraction x 4, 1 Weeks",95.37% and 97.38%
same,mice censored from EFS analysis due to weight loss >20%,"[2]; MTD, two out of 22 mice, >50 days from treatment",9%
same,Percent Body Weight from study initiation,"[2]; NBSD-650, 24 MBq/kg/fraction x 4, 2.6 Weeks",90.4306% and 91.4027%
same,Percent Body Weight from study initiation,"[2]; NBSD-650, 24 MBq/kg/fraction x 4, 3 Weeks",94.7368% and 92.3077%
same,Percent Body Weight from study initiation,"[2]; NBSD-650, 24 MBq/kg/fraction x 4, 3.6 Weeks",95.2153% and 92.7602%
same,Percent Body Weight from study initiation,"[2]; NBSD-650, 24 MBq/kg/fraction x 4, 4 Weeks",98.0861%
same,Percent Body Weight from study initiation,"[2]; NBSD-975, 36 MBq/kg/fraction x 4, 2.6 Weeks",84.141% and 86.3636%
same,Percent Body Weight from study initiation,"[2]; NBSD-975, 36 MBq/kg/fraction x 4, 3 Weeks",81.9383% and 87.8788%
same,Percent Body Weight from study initiation,"[2]; NBSD-975, 36 MBq/kg/fraction x 4, 3.6 Weeks",81.4978% and 88.3838%
same,dose-limiting toxicity observed (number),[2]; NE-EBC1x tumor-bearing mouse re-challenged with 24 MBq/kg fractionated regimen,One
same,treated mice that maintained a healthy weight throughout the study (≥100 ± 20% body weight),[2]; all dose levels,43 of 46
